Laboratory results: patent publication US11285127B2, “Compositions and methods for lowering triglycerides without raising LDL-C levels in a subject on concomitant statin therapy” (Amarin Pharmaceuticals Ireland Limited, priority 2013, dated 2022)

System: patients with fasting triglyceride levels >200 mg/dl and <500 mg/dl despite statin therapy
Assay: 12-week study: lipoprotein particle concentration (VLDL, LDL, HDL; nuclear magnetic resonance)
Assay type: in vivo, human
Details: for LDL Particle Concentration, Week 12 EP Median (IQR): MITT; for LDL Particle Concentration, Percent change from Baseline, Median (IQR) / LDL Particle Concentration, Difference from placebo, Estimated median: Week 12, MITT; for LDL Particle Concentration, Difference from placebo, Estimated median: difference in percent change
From the text: Parameters (a)-(z) can be measured in accordance with any clinically acceptable methodology. For example, triglycerides, total cholesterol, HDL-C and fasting blood sugar can be sample from serum and analyzed using standard photometry techniques. VLDL-TG, LDL-C and VLDL-C can be calculated or determined using serum lipoprotein fractionation by preparative ultracentrifugation and subsequent quantitative analysis by refractometry or by analytic ultracentrifugal methodology. Apo A1, Apo B and hsCRP can be determined from serum using standard nephelometry techniques. Lipoprotein (a) can be determined from serum using standard turbidimetric immunoassay techniques. LDL particle number and particle size can be determined using nuclear magnetic resonance (NMR) spectrometry. Remnants lipoproteins and LDL-phospholipase A2 can be determined from EDTA plasma or serum and serum, respectively, using enzymatic immunoseparation techniques. Oxidized LDL, intercellular adhesion molecule-1 and interleukin-2 levels can be determined from serum using standard enzyme immunoassay techniques. These techniques are described in detail in standard textbooks, for example Tietz Fundamentals of Clinical Chemistry, 6th Ed. (Burtis, Ashwood and Borter Eds.), WB Saunders Company.
A multi-center, placebo-controlled, randomized, double-blind, 12-week study was performed to evaluate the efficacy and safety of >96% E-EPA in patients with fasting triglyceride levels >200 mg/dl and <500 mg/dl despite statin therapy (the mean of two qualifying entry values needed to be >185 mg/dl and at least one of the values needed to be >200 mg/dl). The primary objective of the study was to determine the efficacy of >96% E-EPA 2 g daily and 4 g daily, compared to placebo, in lowering fasting TG levels in patients with high risk for cardiovascular disease and with fasting TG levels 200 mg/dl and <500 mg/dl, despite treatment to LDL-C goal on statin therapy.
The secondary objectives of this study were the following: • 1. To determine the safety and tolerability of >96% E-EPA 2 g daily and 4 g daily; • 2. To determine the effect of >96% E-EPA on lipid and apolipoprotein profiles including total cholesterol (TC), non-high-density lipoprotein cholesterol (non-HDL-C), low density lipoprotein cholesterol (LDL-C), high density lipoprotein cholesterol (HDL-C), and […]; • 3. To determine the effect of >96% E-EPA on lipoprotein associated phospholipase A2 (Lp-PLA2) from baseline to week 12; • 4. To determine the effect of >96% E-EPA on low-density lipoprotein (LDL) particle number and size; • 5. To determine the effect of >96% E-EPA on oxidized LDL; • 6. To determine the effect of >96% E-EPA on fasting plasma glucose (FPG) and hemoglobin A1c (HbA1c); • 7. To determine the effect of >96% E-EPA on insulin resistance; • 8. To determine the effect of >96% E-EPA on high-sensitivity C-reactive protein (hsCRP); • 9. To determine the effects of >96% E-EPA 2 g daily and 4 g daily on the incorporation of fatty acids into red blood cell membranes and into plasma phospholipids; • 10. To explore the relationship between baseline fasting TG levels and the reduction in fasting TG levels; and • 11. To explore the relationship between changes of fatty acid concentrations in plasma and red blood cell membranes, and the reduction in fasting TG levels.
The primary efficacy variable for the double-blind treatment period was percent change in TG from baseline to Week 12 endpoint. […]

[1] = 2 g/day, 12 weeks, placebo-adjusted Hodges-Lehmann median
[2] = 4 g/day, 12 weeks, placebo-adjusted Hodges-Lehmann median
[3] = 4 g/day, 12 weeks, placebo-adjusted Hodges-Lehmann median, listed as IPE
[4] = IPE 2 g/day (n = 222), 12 weeks

CC/C=C\C/C=C\C/C=C\C/C=C\C/C=C\CCCC(=O)OCC [AMR101, ethyl eicosapentaenoate]
IDL particle concentration, Median Change From Baseline IPE 2 g/day vs Placebo [1]: 8.6%
Large HDL particle concentration, Median Change From Baseline IPE 2 g/day vs Placebo [1]: −13.5%
Large LDL particle concentration, Median Change From Baseline IPE 2 g/day vs Placebo [1]: 26.5%
Large VLDL particle concentration, Median Change From Baseline IPE 2 g/day vs Placebo [1]: −24.2%
Medium HDL particle concentration, Median Change From Baseline IPE 2 g/day vs Placebo [1]: −4.5%
Medium VLDL particle concentration, Median Change From Baseline IPE 2 g/day vs Placebo [1]: 2.6%
Small HDL particle concentration, Median Change From Baseline IPE 2 g/day vs Placebo [1]: −0.2%
Small LDL particle concentration, Median Change From Baseline IPE 2 g/day vs Placebo [1]: −14.7%
Small VLDL particle concentration, Median Change From Baseline IPE 2 g/day vs Placebo [1]: 16.5%
Total HDL particle concentration, Median Change From Baseline IPE 2 g/day vs Placebo [1]: −3.1%
Total LDL particle concentration, Median Change From Baseline IPE 2 g/day vs Placebo [1]: −7.5%
Total VLDL particle concentration, Median Change From Baseline IPE 2 g/day vs Placebo [1]: 1.8%
Reduction of median concentration of small LDL particles over baseline when adjusted for placebo control (4 g per day, 12 weeks): 13.5%
Reduction of median concentration of total HDL over baseline when adjusted for placebo (4 g per day, 12 weeks): 7.4%
Reduction of median concentration of total LDL over baseline when adjusted for placebo (4 g per day, 12 weeks): 7.7%
Reduction of median concentration of total VLDL over baseline when adjusted for placebo (4 g per day, 12 weeks): 12.2%
IDL particle concentration, Median Change From Baseline IPE 4 g/day vs Placebo [2]: 10.0%
Medium HDL particle concentration, Median Change From Baseline IPE 4 g/day vs Placebo [2]: −6.5%
Small HDL particle concentration, Median Change From Baseline IPE 4 g/day vs Placebo [2]: −2.8%
Small LDL particle concentration, Median Change From Baseline IPE 4 g/day vs Placebo [2]: −13.5%
Small VLDL particle concentration, Median Change From Baseline IPE 4 g/day vs Placebo [2]: 2.8%
Total HDL particle concentration, Median Change From Baseline IPE 4 g/day vs Placebo [2]: −7.4%
Total LDL particle concentration, Median Change From Baseline IPE 4 g/day vs Placebo [2]: −7.7%
Total VLDL particle concentration, Median Change From Baseline IPE 4 g/day vs Placebo [2]: −12.2%
Large HDL particle concentration, Median Change From Baseline IPE 4 g/day vs Placebo [3]: −31.0%
Large LDL particle concentration, Median Change From Baseline IPE 4 g/day vs Placebo [3]: 34.2%
Large VLDL particle concentration, Median Change From Baseline IPE 4 g/day vs Placebo [3]: −46.4%
Medium VLDL particle concentration, Median Change From Baseline IPE 4 g/day vs Placebo [3]: −12.1%
Small LDL particle concentration, Median Change From Baseline IPE 4 g/day vs Placebo [3]: −13.5%
Total HDL particle concentration, Median Change From Baseline IPE 4 g/day vs Placebo [3]: −7.4%
Total LDL particle concentration, Median Change From Baseline IPE 4 g/day vs Placebo [3]: −7.7%
Total VLDL particle concentration, Median Change From Baseline IPE 4 g/day vs Placebo [3]: −12.2%
LDL Particle Concentration, Week 12 EP Median (IQR) (AMR101 2g/d + statin, n 222): 1215.0 (355.0) nmol/L
LDL Particle Concentration, Percent change from Baseline, Median (IQR) (AMR101 2g/d + statin): 4.7 (29.2) %
LDL Particle Concentration, Difference from placebo, Estimated median (AMR101 2g/d + statin): −7.5
LDL Particle Concentration, Week 12 EP Median (IQR) (AMR101 4g/d + statin, n 216): 1190.5 (512.0) nmol/L
LDL Particle Concentration, Percent change from Baseline, Median (IQR) (AMR101 4g/d + statin): 3.8 (31.8) %
LDL Particle Concentration, Difference from placebo, Estimated median (AMR101 4g/d + statin): −7.7
IDL particle concentration, Change from Baseline % (median) [4]: 10.5%
IDL particle concentration, End of Treatment (median) [4]: 63.5 nmol/L
Large HDL particle concentration, Change from Baseline % (median) [4]: −4.0%
Large HDL particle concentration, End of Treatment (median) [4]: 2.4 µmol/L
Large LDL particle concentration, Change from Baseline % (median) [4]: 47.7%
Large LDL particle concentration, End of Treatment (median) [4]: 202.0 nmol/L
Large VLDL particle concentration, Change from Baseline % (median) [4]: −19.7%
Large VLDL particle concentration, End of Treatment (median) [4]: 10 nM
Medium HDL particle concentration, Change from Baseline % (median) [4]: 2.9%
Medium HDL particle concentration, End of Treatment (median) [4]: 7.2 µmol/L
Medium VLDL particle concentration, Change from Baseline % (median) [4]: 7.9%
Medium VLDL particle concentration, End of Treatment (median) [4]: 59.6 nmol/L
Small HDL particle concentration, Change from Baseline % (median) [4]: −0.6%
Small HDL particle concentration, End of Treatment (median) [4]: 23.8 µmol/L
Small LDL particle concentration, Change from Baseline % (median) [4]: −4.3%
Small LDL particle concentration, End of Treatment (median) [4]: 920.5 nmol/L
Small VLDL particle concentration, Change from Baseline % (median) [4]: 22.1%
Small VLDL particle concentration, End of Treatment (median) [4]: 49.6 nmol/L
Total HDL particle concentration, Change from Baseline % (median) [4]: 0.7%
Total HDL particle concentration, End of Treatment (median) [4]: 34.7 µmol/L
Total LDL particle concentration, Change from Baseline % (median) [4]: 4.7%
Total LDL particle concentration, End of Treatment (median) [4]: 1215 nmol/L
Total VLDL particle concentration, Change from Baseline % (median) [4]: 12.0%
